Legend:
[1] = target: Fatty Acid Synthase Keto-reductase Domain (FASN KR) (Homo sapiens, UniProt P49327); test: Fatty Acid Synthase keto-reductase domain (FASN KR) inhibition, NADPH oxidation at 340 nm
Procedure: After 20 minutes incubation at room temperature the plate was measured again (T2).
The decrease in absorbance was calculated as (Absorbance before incubation T1)−(Absorbance following incubation T2).
A plot of Controlmin versus test compound concentration was fitted to a 4-parameter logistic curve using a non-linear least squares regression method.

[2] = test system: LNCaP-Vancouver prostate cells; test: In vitro LNCaP Vancouver prostate cell proliferation assay in lipid reduced medium; assay type: cell-based; conditions: read-out: pIC50 LNCaP_Vancouver prostate cell (converted)
[3] = target: T1, hFASN enzyme (full length) (Homo sapiens, UniProt P49327); test: Fatty Acid Synthase (FASN) inhibition scintillation proximity assay; assay type: biochemical; conditions: for inhibition at 10 µM: read-out: Human FASN % inhibition @ 10 μM, 10 μM test compound; for IC50: read-out: Human FASN pIC50 (converted)
T1 construct: 10 μL hFASN enzyme (full length, 300 ng, purified in house); made in house
In short: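 Read-out relies on hydrophobic ³H-palmitate product, formed from ³H-acetyl-CoA and malonyl-CoA, binding streptavidin imaging beads, measured at 610±20 nm after at least 24 h. Full-length enzyme (300 ng) in phosphate buffer pH 7.5 with DTT; eight compound concentrations, 0.01–30 μM.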

[4] = test system: PC-3M-Luc-C6 prostate cells; test: In vitro PC-3M-Luc-C6 prostate cell proliferation assay in lipid reduced medium; assay type: cell-based; conditions: 96 h, read-out: pIC50 PC-3M-Luc-C6 prostate cell (converted)
A2780 ovarian cells [5] = test: A2780 ovarian cell proliferation assay in lipid reduced medium, without palmitate (MTT); assay type: cell-based; conditions: Homo sapiens, A2780, 96 h; read-out: pIC50 A2780 Ovarian Cell, Without Palmitate (converted)
A2780 ovarian cells [6] = test: A2780 ovarian cell proliferation assay in lipid reduced medium, with palmitate (MTT); assay type: cell-based; conditions: Homo sapiens, A2780, 96 h; read-out: pIC50 A2780 Ovarian Cell, With Palmitate (converted)
In short: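 In this palmitate-supplemented format, compound dilutions (30 μM down to 0.01 μM) are added to cells in lipid-reduced serum with 25 μM palmitate, 0.2% fatty-acid-free BSA and 0.25% ethanol. After four days (96 h) MTT absorbance at 544 nm is recorded and fitted by minimum sum of squares.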

Fatty Acid Synthase Keto-reductase Domain (FASN KR), sequence (P49327 whole entry, the tested form may be a part): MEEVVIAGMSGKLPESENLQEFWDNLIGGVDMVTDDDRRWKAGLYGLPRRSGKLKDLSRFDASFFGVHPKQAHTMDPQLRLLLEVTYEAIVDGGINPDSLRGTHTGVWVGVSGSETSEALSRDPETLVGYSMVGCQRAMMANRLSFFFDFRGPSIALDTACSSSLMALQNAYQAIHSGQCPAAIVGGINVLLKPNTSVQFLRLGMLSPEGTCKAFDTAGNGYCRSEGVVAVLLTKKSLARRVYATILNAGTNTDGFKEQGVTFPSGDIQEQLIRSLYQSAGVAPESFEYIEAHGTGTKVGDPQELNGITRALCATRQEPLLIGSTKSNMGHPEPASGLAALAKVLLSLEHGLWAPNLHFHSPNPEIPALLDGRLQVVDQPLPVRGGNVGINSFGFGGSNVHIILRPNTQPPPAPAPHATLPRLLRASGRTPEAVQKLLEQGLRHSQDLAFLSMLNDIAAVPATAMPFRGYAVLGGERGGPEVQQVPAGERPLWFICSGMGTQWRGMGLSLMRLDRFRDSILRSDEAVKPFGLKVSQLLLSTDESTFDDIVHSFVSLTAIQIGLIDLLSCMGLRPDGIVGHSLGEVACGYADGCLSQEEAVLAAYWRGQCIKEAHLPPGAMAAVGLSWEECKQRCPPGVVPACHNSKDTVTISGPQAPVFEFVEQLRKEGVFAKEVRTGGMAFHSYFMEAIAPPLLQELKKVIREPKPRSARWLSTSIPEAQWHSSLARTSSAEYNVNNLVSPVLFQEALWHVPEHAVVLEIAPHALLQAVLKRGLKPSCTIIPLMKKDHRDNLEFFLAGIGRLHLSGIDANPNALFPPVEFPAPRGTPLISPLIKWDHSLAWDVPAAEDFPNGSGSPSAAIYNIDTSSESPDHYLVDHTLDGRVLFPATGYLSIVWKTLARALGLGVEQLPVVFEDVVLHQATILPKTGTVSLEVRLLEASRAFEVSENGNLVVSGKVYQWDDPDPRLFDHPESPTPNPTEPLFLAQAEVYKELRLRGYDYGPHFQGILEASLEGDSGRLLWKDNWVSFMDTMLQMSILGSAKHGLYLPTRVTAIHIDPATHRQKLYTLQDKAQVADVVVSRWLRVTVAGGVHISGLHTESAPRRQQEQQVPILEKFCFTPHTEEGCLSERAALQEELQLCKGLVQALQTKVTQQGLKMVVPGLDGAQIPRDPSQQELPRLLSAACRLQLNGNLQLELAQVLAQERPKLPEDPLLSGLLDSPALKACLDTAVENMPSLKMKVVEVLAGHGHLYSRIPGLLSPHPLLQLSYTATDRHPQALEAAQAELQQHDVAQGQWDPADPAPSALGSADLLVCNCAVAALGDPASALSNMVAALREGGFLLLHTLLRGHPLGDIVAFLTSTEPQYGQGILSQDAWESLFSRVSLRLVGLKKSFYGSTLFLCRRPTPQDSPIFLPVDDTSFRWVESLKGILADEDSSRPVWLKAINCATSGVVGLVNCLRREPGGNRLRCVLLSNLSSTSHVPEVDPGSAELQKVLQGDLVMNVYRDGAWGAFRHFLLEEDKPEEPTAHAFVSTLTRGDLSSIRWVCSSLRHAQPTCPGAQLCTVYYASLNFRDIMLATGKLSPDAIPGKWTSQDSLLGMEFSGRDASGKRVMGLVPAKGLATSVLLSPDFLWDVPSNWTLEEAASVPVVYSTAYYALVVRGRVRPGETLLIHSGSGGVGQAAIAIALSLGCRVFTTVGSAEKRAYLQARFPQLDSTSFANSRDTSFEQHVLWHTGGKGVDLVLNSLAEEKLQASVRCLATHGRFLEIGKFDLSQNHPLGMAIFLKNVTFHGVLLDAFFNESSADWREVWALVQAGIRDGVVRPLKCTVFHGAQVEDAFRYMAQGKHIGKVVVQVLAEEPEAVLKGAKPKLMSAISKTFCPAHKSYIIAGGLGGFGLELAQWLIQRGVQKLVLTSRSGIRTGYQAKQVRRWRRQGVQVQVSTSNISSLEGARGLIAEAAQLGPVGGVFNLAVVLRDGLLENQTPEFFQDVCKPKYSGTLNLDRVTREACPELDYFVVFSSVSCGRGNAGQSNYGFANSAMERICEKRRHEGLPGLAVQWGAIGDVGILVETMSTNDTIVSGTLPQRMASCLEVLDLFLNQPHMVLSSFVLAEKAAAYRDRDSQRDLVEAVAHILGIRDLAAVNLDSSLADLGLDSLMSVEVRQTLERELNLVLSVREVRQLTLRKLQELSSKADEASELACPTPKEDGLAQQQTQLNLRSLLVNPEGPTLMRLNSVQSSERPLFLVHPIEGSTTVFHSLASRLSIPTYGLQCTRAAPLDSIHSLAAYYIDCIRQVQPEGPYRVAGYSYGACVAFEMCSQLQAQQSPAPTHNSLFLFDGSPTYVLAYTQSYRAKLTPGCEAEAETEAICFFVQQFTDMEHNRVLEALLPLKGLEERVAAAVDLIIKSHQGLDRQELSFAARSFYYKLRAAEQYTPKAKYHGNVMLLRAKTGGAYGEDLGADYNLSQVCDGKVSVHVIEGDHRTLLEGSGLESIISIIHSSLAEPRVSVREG
T1 sequence (P49327 whole entry): as the sequence (P49327 whole entry, the tested form may be a part) above

IC50 [1] [nM]	IC50 [2] [nM]	inhibition at 10 µM [3] [%]	IC50 [3] [nM]	IC50 [4] [nM]	IC50 (A2780 ovarian cells [5]) [nM]	IC50 (A2780 ovarian cells [6]) [nM]	Compound
251	631	98	66.1	123	–	–	O=C(C1CC1)N1CC(CN2C(=O)C3(CC3)N=C2c2ccc(-c3ccc4cccnc4c3F)cc2)C1 [compound 315, 6-((1-(cyclopropanecarbonyl)azetidin-3-yl)methyl)-5-(4-(8-fluoroquinolin-7-yl)phenyl)-4,6-diazaspiro[2.4]hept-4-en-7-one]
45.7	141	99	25.7	~32.4	–	–	Cn1ccc2cc(-c3ccc(C4=NC5(CC5)C(=O)N4CC4CN(C(=O)C5CC5)C4)cc3)ccc21 [compound 344, 6-((1-(cyclopropanecarbonyl)azetidin-3-yl)methyl)-5-(4-(1-methyl-1H-indol-5-yl)phenyl)-4,6-diazaspiro[2.4]hept-4-en-7-one]
2140	4170	94	355	1170	–	–	O=C(C1CC1)N1CC(CN2C(=O)C3(CC3)N=C2c2ccc(-c3ccc4cnc(F)cc4c3)cc2)C1 [compound 502, 6-{[1-(Cyclopropylcarbonyl)azetidin-3-yl]methyl}-5-[4-(3-fluoroisoquinolin-6-yl)phenyl]-4,6-diazaspiro[2.4]hept-4-en-7-one]
3160	4680	94	355	~891	–	–	O=C(C1CC1)N1CC(CN2C(=O)C3(CC3)N=C2c2ccc(-c3ccc4cccnc4n3)cc2)C1 [compound 511, 6-{[1-(Cyclopropylcarbonyl)azetidin-3-yl]methyl}-5-[4-(1,8-naphthyridin-2-yl)phenyl]-4,6-diazaspiro[2.4]hept-4-en-7-one]
389	2690	96	158	550	–	–	O=C(C1CC1)N1CC(CN2C(=O)C3(CC3)N=C2c2ccc(-c3cnc4ccccc4c3)cc2)C1 [compound 519, 6-{[1-(Cyclopropylcarbonyl)azetidin-3-yl]methyl}-5-(4-quinolin-3-ylphenyl)-4,6-diazaspiro[2.4]hept-4-en-7-one]
–	3020	96	380	977	~676	~10000	O=C(C1CC1)N1CC(CN2C(=O)C3(CC3)N=C2c2ccc(-c3nc4cc(Cl)ccc4s3)cc2F)C1 [compound 643, 5-[4-(5-Chloro-1,3-benzothiazol-2-yl)-2-fluorophenyl]-6-{[1-(cyclopropylcarbonyl)azetidin-3-yl]methyl}-4,6-diazaspiro[2.4]hept-4-en-7-one]
407	~2510	99	178	~234	–	–	Cn1cc(-c2ccc(-c3ccc(C4=NC5(CCOCC5)C(=O)N4C[C@@H]4CCN(C(=O)C5CC5)C4)cc3)cc2)cn1 [compound 655, 3-{[(3R)-1-(cyclopropylcarbonyl)pyrrolidin-3-yl]methyl}-2-[4′-(1-methyl-1H-pyrazol-4-yl)biphenyl-4-yl]-8-oxa-1,3-diazaspiro[4.5]dec-1-en-4-one]
275	550	100	64.6	117	–	–	O=C([C@H]1CCCO1)N1CC[C@@H](CN2C(=O)C3(CCOCC3)N=C2c2ccc(-c3ccc4cccnc4c3)cc2)C1 [compound 663, 2-(4-Quinolin-7-ylphenyl)-3-({(3R)-1-[(2R)-tetrahydro-furan-2-ylcarbonyl]pyrrolidin-3-yl}methyl)-8-oxa-1,3-diazaspiro[4.5]dec-1-en-4-one]
3160	~4900	94	457	~813	–	–	Cn1ncc2cc(-c3ccc(C4=NC5(CCOCC5)C(=O)N4C[C@@H]4CCN(C(=O)[C@H]5CCCO5)C4)cc3)ccc21 [compound 674, 2-[4-(1-Methyl-1H-indazol-5-yl)phenyl]-3-({(3R)-1-[(2R)-tetrahydro-furan-2-ylcarbonyl]pyrrolidin-3-yl}methyl)-8-oxa-1,3-diazaspiro[4.5]dec-1-en-4-one]

The next lines start with the compound.

Compound	IC50 [1] [nM]	IC50 [2] [nM]	inhibition at 10 µM [3] [%]	IC50 [3] [nM]	IC50 [4] [nM]	IC50 (A2780 ovarian cells [5]) [nM]	IC50 (A2780 ovarian cells [6]) [nM]
O=C(C1CC1)N1CC[C@@H](CN2C(=O)C3(CC3)N=C2c2ccc(-c3cnc4ccccc4c3)cc2F)C1 [compound 257, (R)-6-((1-(cyclopropanecarbonyl)pyrrolidin-3-yl)methyl)-5-(2-fluoro-4-(quinolin-3-yl)phenyl)-4,6-diazaspiro[2.4]hept-4-en-7-one]	200	263	99	49	70.8	–	–
O=C(C1CC1)N1CC[C@@H](CN2C(=O)C3(CC3)N=C2c2ccc(-c3ccc4cncnc4c3)cc2)C1 [compound 312, (R)-6-((1-(cyclopropanecarbonyl)pyrrolidin-3-yl)methyl)-5-(4-(quinazolin-7-yl)phenyl)-4,6-diazaspiro[2.4]hept-4-en-7-one]	75.9	123	101	75.9	~52.5	–	–
Cc1cc(-c2ccc3c(cnn3C)c2)ccc1C1=NC2(CC2)C(=O)N1CC1CN(C(=O)CC2CC2)C1 [compound 499, 6-{[1-(Cyclopropylacetyl)azetidin-3-yl]methyl}-5-[2-methyl-4-(1-methyl-1H-indazol-5-yl)phenyl]-4,6-diazaspiro[2.4]hept-4-en-7-one]	479	4270	96	245	457	–	–
Cn1cc2cc(-c3ccc(C4=NC5(CC5)C(=O)N4CC4CN(C(=O)C5CC5)C4)cc3)ccc2n1 [compound 507, 6-{[1-(Cyclopropylcarbonyl)azetidin-3-yl]methyl}-5-[4-(2-methyl-2H-indazol-5-yl)phenyl]-4,6-diazaspiro[2.4]hept-4-en-7-one]	3630	6030	89	417	~1170	–	–
Cn1ncc2c(-c3ccc(C4=NC5(CC5)C(=O)N4CC4CN(C(=O)C5CC5)C4)cc3)cccc21 [compound 515, 6-{[1-(Cyclopropylcarbonyl)azetidin-3-yl]methyl}-5-[4-(1-methyl-1H-indazol-4-yl)phenyl]-4,6-diazaspiro[2.4]hept-4-en-7-one]	437	2140	96	182	562	–	–
Cn1cc(-c2ccc(-c3ccc(C4=NC5(CC5)C(=O)N4CC4CN(C(=O)C5CC5)C4)cc3)cn2)cn1 [compound 517, 6-{[1-(Cyclopropylcarbonyl)azetidin-3-yl]methyl}-5-{4-[6-(1-methyl-1H-pyrazol-4-yl)pyridin-3-yl]phenyl}-4,6-diazaspiro[2.4]hept-4-en-7-one]	1510	~5250	88	646	1260	–	–
Cc1cc(-c2ccc3c(c2)ncn3C)ccc1C1=NC2(CC2)C(=O)N1CC1CN(C(=O)C2(O)CC2)C1 [compound 628, 6-({1-[(1-Hydroxycyclopropyl)carbonyl]azetidin-3-yl}methyl)-5-[2-methyl-4-(1-methyl-1H-benzimidazol-5-yl)phenyl]-4,6-diazaspiro[2.4]hept-4-en-7-one]	–	724	100	–	162	66.1	> 10000
O=C(C1CC1)N1CC[C@@H](CN2C(=O)C3(CC3)N=C2c2ccc(-c3cccc(SC4CC4)c3)cc2F)C1 [compound 641, 6-{[(3R)-1-(Cyclopropylcarbonyl)pyrrolidin-3-yl]methyl}-5-[3′-(cyclopropylsulfanyl)-3-fluorobiphenyl-4-yl]-4,6-diazaspiro[2.4]hept-4-en-7-one]	–	4570	102	–	~562	~2240	> 10000
Cn1cc(-c2ccc(-c3ccc(C4=NC5(CCOCC5)C(=O)N4C[C@@H]4CCN(C(=O)[C@H]5CCCO5)C4)cc3)cc2)cn1 [compound 657, 2-[4′-(1-Methyl-1H-pyrazol-4-yl)biphenyl-4-yl]-3-({(3R)-1-[(2R)-tetrahydro-furan-2-ylcarbonyl]pyrrolidin-3-yl}methyl)-8-oxa-1,3-diazaspiro[4.5]dec-1-en-4-one]	661	3800	97	309	589	–	–
Cc1cc(-c2ccc3cc[nH]c3c2)ccc1C1=NC2(CCCC2)C(=O)N1C[C@@H]1CCN(C(=O)C2CC2)C1 [compound 873, (R)-2-(4-(1H-indol-6-yl)-2-methylphenyl)-3-((1-(cyclopropanecarbonyl)pyrrolidin-3-yl)methyl)-1,3-diazaspiro[4.4]non-1-en-4-one]	–	263	109	–	34.7	63.1	> 10000

Reference: patent publication US10077261B2, “Imidazolin-5-one derivative useful as FASN inhibitors for the treatment of cancer” (Janssen Pharmaceutica NV, priority 2012, dated 2018)
